According to US6479435B1, “Diaryl ethers and processes for their preparation and herbicidal and desiccant compositions containing them” (ISK Americas Incorporated, priority 1997, dated 2002):

Assays:
Type in all cases: in vivo
[1] = tested on: soybean (Glycine max L., var. Pella 86, SOY); assay: Pre-emerge greenhouse test, crop damage rating; set-up: key to SOY crop damage rating: 0 = no damage, 100 = complete death of all plants; details: 14 days after application, rating scale 0-100
In short: (§1)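 Seeds sown in sandy loam one day before track-sprayer application of acetone solutions at 125–1000 g ai/ha (187 l/ha), then surface-watered to incorporate and bottom-watered. Injury scored visually at 14 days on a 0–100 scale (0 no damage, 100 complete death).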

[2] = tested on: green foxtail (Setaria viridis, SETVI); assay: Post-emerge greenhouse herbicide test, phytotoxicity rating; details: 14 days after application, scale 0-100
In short: (§2)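 Plants at the 2-3 leaf stage, sown 8-21 days earlier, were track-sprayed post-emergence with compound in acetone plus 0.25% v/v non-ionic surfactant at 63-1000 g ai/ha (187 l/ha). Damage was rated at 14 days on a 0-100 scale (0 none, 100 all plants dead), for both crop injury and weed control.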

[3] = tested on: ivyleaf morningglory (Ipomoea hederacea, IPOHE); assay: as above; details: 14 days after application, scale 0-100
In short: as §2

[4] = tested on: velvetleaf (Abutilon theophrasti, ABUTH); assay: as above; details: 14 days after application, scale 0-100
In short: as §2

[5] = tested on: barnyardgrass (Echinochloa crusgalli, ECHCG); assay: as above; details: 14 days after application, scale 0-100
In short: as §2

[6] = tested on: lambsquarters (Chenopodium album, CHEAL); assay: as above; details: 14 days after application, scale 0-100
In short: as §2

[7] = tested on: large crabgrass (Digitaria sanguinalis, DIGSA); assay: as above; details: 14 days after application, scale 0-100
In short: as §2

[8] = tested on: redroot pigweed (Amaranthus retroflexus, AMARE); assay: as above; details: 14 days after application, scale 0-100
In short: as §2

[9] = tested on: Johnsongrass (Sorghum halepense, SORHA); assay: as above; details: 14 days after application, scale 0-100
In short: as §2

[10] = tested on: sicklepod (Cassia obtusifolia, CASOB); assay: as above; details: 14 days after application, scale 0-100
In short: as §2

[11] = tested on: soybean (Glycine max L., var. Pella 86, SOY); assay: Post-emerge greenhouse test, crop damage rating; set-up: key to crop damage rating SOY: 0-100 scale: 0 = no damage, 100 = complete death of all plants; details: 14 days after application, scale 0-100
In short: as §2

[12] = tested on: common ragweed (Ambrosia artemisiifolia L., AMBEL); assay: Post-emerge greenhouse herbicide test, phytotoxicity rating; details: 14 days after application, scale 0-100
From the text: A standard greenhouse herbicide activity screening system was used to evaluate the herbicidal efficacy and crop safety of these test compounds. Six broadleaf weed species including redroot pigweed (Amaranthus retroflexus, AMARE), velvetleaf (Abutilon theophrasti, ABUTH), sicklepod (Cassia obtusifolia, CASOB), ivyleaf morningglory (Ipomoea hederacea, IPOHE), lambsquarters (Chenopodium album, CHEAL) and common ragweed (Ambrosia artemisiifolia L., AMBEL) were used as test species. Four grass weed species including green foxtail (Setaria viridis, SETVI), barnyardgrass (Echinochloa crusgalli, ECHCG), Johnsongrass (Sorghum halepense, SORHA), and large crabgrass (Digitaria sanguinalis, DIGSA) were also used. In addition, three crop species, field corn (Zea mays L., var. Dekalb 535, CORN), soybean (Glycine max L., var. Pella 86, SOY), and upland rice (Oryza sp., var.Tebonnet, RICE) were included.
All test compounds were dissolved in acetone and applied to the test units in a volume of 187 l/ha. […] Plants were arranged on a shelf so that the top of the canopy (post-emerge) or top of the soil surface (pre-emerge) was 40-45 cm below the nozzle. Pressurized air was used to force the test solution through the nozzle as it was mechanically advanced (via electrically driven chain drive) over the top of all test plants/pots. This application simulates a typical commercial field herbicide application.
In the post-emerge test, a commercial non-ionic surfactant was also included (0.25% v/v) to enhance wetting of the leaf surfaces Qf target plants at rates ranging from 63 g ai/ha to 1000 g ai/ha. For post-emerge tests, seeds were planted 8-21 days prior to the test to allow emergence and good foliage development prior to application of the test substances. At the time of the post-emerge application, plants of all species were usually at the 2-3 leaf stage of development. Post-emerge test units were always bottom-watered.
At 14 days after application of the test materials, phytotoxicity ratings were recorded. A rating scale of 0-100 was used as previously described in Research Methods in Weed Science, 2nd edition, B. Truelove, Ed., Southern Weed Science Society, Auburn University, Auburn, Ala., 1977. Briefly, “0” corresponds to no damage and “100” corresponds to complete death of all plants in the test unit. This scale was used both to determine efficacy against weed species and damage to crop species. Herbicide activity data for various compounds of this invention, which are shown by compound number in Tables 1-9, are shown in Tables 13 and 14.

[13] = tested on: green foxtail (Setaria viridis, SETVI); assay: Pre-emerge greenhouse herbicide test, phytotoxicity rating; details: 14 days after application, rating scale 0-100
In short: as §1

[14] = tested on: ivyleaf morningglory (Ipomoea hederacea, IPOHE); assay: as above; details: 14 days after application, rating scale 0-100
In short: as §1

[15] = tested on: velvetleaf (Abutilon theophrasti, ABUTH); assay: as above; details: 14 days after application, rating scale 0-100
In short: as §1

[16] = tested on: barnyardgrass (Echinochloa crusgalli, ECHCG); assay: as above; details: 14 days after application, rating scale 0-100
In short: as §1

[17] = tested on: lambsquarters (Chenopodium album, CHEAL); assay: as above; details: 14 days after application, rating scale 0-100
In short: as §1

[18] = tested on: large crabgrass (Digitaria sanguinalis, DIGSA); assay: as above; details: 14 days after application, rating scale 0-100
In short: as §1

[19] = tested on: redroot pigweed (Amaranthus retroflexus, AMARE); assay: as above; details: 14 days after application, rating scale 0-100
In short: as §1

[20] = tested on: Johnsongrass (Sorghum halepense, SORHA); assay: as above; details: 14 days after application, rating scale 0-100
In short: as §1

[21] = tested on: sicklepod (Cassia obtusifolia, CASOB); assay: as above; details: 14 days after application, rating scale 0-100
In short: as §1

[22] = tested on: upland rice (Oryza sp., var.Tebonnet, RICE); assay: Post-emerge greenhouse test, crop damage rating; details: 14 days after application, scale 0-100
In short: as §2

[23] = tested on: field corn (Zea mays L., var. Dekalb 535, CORN); assay: Post-emerge greenhouse test, crop damage rating; details: 14 days after application, scale 0-100
In short: as §2

[24] = tested on: upland rice (Oryza sp., var.Tebonnet, RICE); assay: Pre-emerge greenhouse test, crop damage rating; details: Rate 250 g al/ha, 14 days after application, rating scale 0-100
In short: as §1

[25] = tested on: field corn (Zea mays L., var. Dekalb 535, CORN); assay: Pre-emerge greenhouse test, crop damage rating; details: 14 days after application, rating scale 0-100
In short: as §1

Compound: CCOC(=O)C(C)Oc1ccc(Oc2cc(-n3c(=O)n4n(c3=S)CCCC4)c(F)cc2Cl)c([N+](=O)[O-])c1 (stereo not shown) [Compound 8-39]
- SOY crop damage rating ([1]; Rate 125 g al/ha): 0
- SOY crop damage rating ([1]; Rate 250 g al/ha): 0
- phytotoxicity rating SETVI ([2]; rate 63 g ai/ha): 10
- phytotoxicity rating SETVI ([2]; rate 230 g ai/ha): 10
- phytotoxicity rating IPOHE ([3]; rate 63 g ai/ha): 100
- phytotoxicity rating IPOHE ([3]; rate 230 g ai/ha): 90
- phytotoxicity rating ABUTH ([4]; rate 63 g ai/ha): 100
- phytotoxicity rating ABUTH ([4]; rate 230 g ai/ha): 100
- phytotoxicity rating ECHCG ([5]; rate 63 g ai/ha): 0
- phytotoxicity rating ECHCG ([5]; rate 230 g ai/ha): 30
- phytotoxicity rating CHEAL ([6]; rate 63 g ai/ha): 50
- phytotoxicity rating CHEAL ([6]; rate 230 g ai/ha): 70
- phytotoxicity rating DIGSA ([7]; rate 63 g ai/ha): 0
- phytotoxicity rating DIGSA ([7]; rate 230 g ai/ha): 10
- phytotoxicity rating AMARE ([8]; rate 63 g ai/ha): 70
- phytotoxicity rating AMARE ([8]; rate 230 g ai/ha): 80
- phytotoxicity rating SORHA ([9]; rate 63 g ai/ha): 0
- phytotoxicity rating SORHA ([9]; rate 230 g ai/ha): 10
- phytotoxicity rating CASOB ([10]; rate 63 g ai/ha): 100
- phytotoxicity rating CASOB ([10]; rate 230 g ai/ha): 30
- crop damage rating SOY ([11]; rate 63 g ai/ha): 60
- crop damage rating SOY ([11]; rate 230 g ai/ha): 80
- phytotoxicity rating AMBEL ([12]; rate 63 g ai/ha): 60
- phytotoxicity rating AMBEL ([12]; rate 230 g ai/ha): 80
- SETVI phytotoxicity rating ([13]; Rate 125 g al/ha): 0
- SETVI phytotoxicity rating ([13]; Rate 250 g al/ha): 40
- IPOHE phytotoxicity rating ([14]; Rate 125 g al/ha): 0
- IPOHE phytotoxicity rating ([14]; Rate 250 g al/ha): 0
- ABUTH phytotoxicity rating ([15]; Rate 125 g al/ha): 20
- ABUTH phytotoxicity rating ([15]; Rate 250 g al/ha): 100
- ECHCG phytotoxicity rating ([16]; Rate 125 g al/ha): 0
- ECHCG phytotoxicity rating ([16]; Rate 250 g al/ha): 0
- CHEAL phytotoxicity rating ([17]; Rate 125 g al/ha): 99
- CHEAL phytotoxicity rating ([17]; Rate 250 g al/ha): 100
- DIGSA phytotoxicity rating ([18]; Rate 125 g al/ha): 0
- DIGSA phytotoxicity rating ([18]; Rate 250 g al/ha): 0
- AMARE phytotoxicity rating ([19]; Rate 125 g al/ha): 100
- AMARE phytotoxicity rating ([19]; Rate 250 g al/ha): 100
- SORHA phytotoxicity rating ([20]; Rate 125 g al/ha): 0
- SORHA phytotoxicity rating ([20]; Rate 250 g al/ha): 0
- CASOB phytotoxicity rating ([21]; Rate 125 g al/ha): 95
- CASOB phytotoxicity rating ([21]; Rate 250 g al/ha): 0
- crop damage rating RICE ([22]; rate 63 g ai/ha): 15
- crop damage rating RICE ([22]; rate 230 g ai/ha): 15
- crop damage rating CORN ([23]; rate 63 g ai/ha): 15
- crop damage rating CORN ([23]; rate 230 g ai/ha): 10
- RICE crop damage rating [24]: 20
- CORN crop damage rating ([25]; Rate 125 g al/ha): 0
- CORN crop damage rating ([25]; Rate 250 g al/ha): 0
